Calls of active or inactive are those of the source. The rule behind the calls is not given here.
How the values were obtained:
MOLP-8 = test: cells; details: Homo sapiens, MOLP-8, 48 h
Description: Antiproliferative activity against human MOLP8 cells assessed as inhibition of cell proliferation incubated for 48 hrs by CellTiter Glo luminescence based MTT assay

KMS-12-PE = test: Antiproliferative activity against human KMS-12-PE cells assessed as inhibition of cell proliferation incubated for 48 hrs by CellTiter Glo luminescence based […]; type: functional
[1] = biological target: Protein cereblon (Homo sapiens) (UniProt Q96SW2); test: Binding affinity to human CRBN thalidomide binding domain by microscale thermophoresis analysis
[2] = Cytotoxicity against PBMC (unknown origin) cells assessed as inhibition of cell growth incubated for 48 hrs by CellTiter Glo luminescence based […]; type: toxicity

Protein cereblon (Homo sapiens), sequence (Q96SW2 whole entry, the tested form may be a part): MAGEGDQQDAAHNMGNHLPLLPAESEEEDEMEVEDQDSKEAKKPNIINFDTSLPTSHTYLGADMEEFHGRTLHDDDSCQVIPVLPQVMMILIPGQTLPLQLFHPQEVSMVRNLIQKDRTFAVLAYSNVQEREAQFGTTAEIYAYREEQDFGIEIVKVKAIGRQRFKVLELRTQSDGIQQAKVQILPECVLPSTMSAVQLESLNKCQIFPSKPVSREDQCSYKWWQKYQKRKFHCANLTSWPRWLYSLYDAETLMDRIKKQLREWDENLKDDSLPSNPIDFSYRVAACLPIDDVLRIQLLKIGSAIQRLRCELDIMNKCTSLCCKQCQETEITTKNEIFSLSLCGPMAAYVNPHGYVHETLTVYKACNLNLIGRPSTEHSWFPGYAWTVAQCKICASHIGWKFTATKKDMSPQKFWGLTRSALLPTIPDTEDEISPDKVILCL

SMILES	IC50 (MOLP-8)	IC50 (KMS-12-PE)	Activity [1]	IC50 at 48 h [2]
O=C1CCC(CSc2ccc(Cl)cc2)C(=O)N1 (stereo unspecified)	20.5 µM	16.2 µM		
COc1ccc(CSCC2CCC(=O)NC2=O)cc1 (stereo unspecified)	73.2 µM	> 100 µM		
O=C1CCC(CS(=O)(=O)c2ccc(F)cc2)C(=O)N1 (stereo unspecified)	5.8 µM	6.45 µM		
O=C1CCC(CSc2ccccc2C(=O)O)C(=O)N1 (stereo unspecified)	> 100 µM	> 100 µM	inactive	
O=C1CCC(CSc2ccccc2[N+](=O)[O-])C(=O)N1 (stereo unspecified)	12.8 µM	13.3 µM		
Nc1ccccc1SCC1CCC(=O)NC1=O (stereo unspecified)	32.3 µM	38.5 µM		71.8 µM
Cc1ccc(S(=O)(=O)CC2CCC(=O)NC2=O)cc1 (stereo unspecified)	5.3 µM	6.12 µM		
O=C1CCC(CS(=O)(=O)c2ccccc2)C(=O)N1 (stereo unspecified)	5.72 µM	6 µM		
CC(=O)Nc1ccc(SCC2CCC(=O)NC2=O)cc1 (stereo unspecified)	38.3 µM			
COC(=O)c1ccccc1SCC1CCC(=O)NC1=O (stereo unspecified)	19.8 µM	32.6 µM		
CC(=O)Nc1cccc(SCC2CCC(=O)NC2=O)c1 (stereo unspecified)	49.5 µM			
O=C1CCC(CS(=O)(=O)Cc2ccccc2)C(=O)N1 (stereo unspecified)	5.52 µM	5.17 µM		
Cn1cnnc1SCC1CCC(=O)NC1=O (stereo unspecified)	> 100 µM	> 100 µM		
Cc1ccnc(SCC2CCC(=O)NC2=O)n1 (stereo unspecified)	11.9 µM	36.8 µM		
CC(=O)Nc1ccccc1SCC1CCC(=O)NC1=O (stereo unspecified)	27.4 µM			
O=C1CCC(CSCc2ccccc2)C(=O)N1 (stereo unspecified)	> 100 µM			
O=C1CCC(N2C(=O)c3ccccc3C2=O)C(=O)N1 (stereo unspecified) [THALIDOMIDE]	> 75 µM	> 75 µM		

SMILES	IC50 (MOLP-8)	IC50 (KMS-12-PE)	Activity [1]	IC50 at 48 h [2]
O=C1CCC(CSc2ccccc2)C(=O)N1 (stereo unspecified)	40 µM	36.4 µM		
COc1ccc(CS(=O)(=O)CC2CCC(=O)NC2=O)cc1 (stereo unspecified)	6.27 µM	5.88 µM		
CN1C(=O)CCC(CSc2ccc(Cl)cc2)C1=O (stereo unspecified)	80.8 µM	45.5 µM	inactive	
O=C1CCC(CSc2ccccn2)C(=O)N1 (stereo unspecified)	27.4 µM	13.3 µM		
O=C1CCC(CSc2ccc([N+](=O)[O-])cc2)C(=O)N1 (stereo unspecified)	8.43 µM			
O=C1CCC(CSc2cccc([N+](=O)[O-])c2)C(=O)N1 (stereo unspecified)	15.9 µM	13.6 µM		
Nc1cccc(SCC2CCC(=O)NC2=O)c1 (stereo unspecified)	41.2 µM	> 90 µM		> 200 µM
O=C1CCC(CSc2ccc(F)cc2)C(=O)N1 (stereo unspecified)	32 µM	29.8 µM		
O=C1CCC(CSc2ccc(Br)cc2)C(=O)N1 (stereo unspecified)	18.3 µM	12.9 µM		
O=C1CCC(CSc2ncccn2)C(=O)N1 (stereo unspecified)	23.9 µM	36.7 µM		
O=C1CCC(SCc2ccccc2)C(=O)N1 (stereo unspecified)	> 100 µM			
Cc1ccc(SCC2CCC(=O)NC2=O)cc1 (stereo unspecified)	38.1 µM	40 µM		
CN1C(=O)CCC(CSc2ccccc2)C1=O (stereo unspecified)	85.9 µM	> 100 µM	inactive	
Nc1ccc(SCC2CCC(=O)NC2=O)cc1 (stereo unspecified)	44.3 µM	> 90 µM		> 200 µM
Cc1cc(C)c(SCC2CCC(=O)NC2=O)c(C)c1 (stereo unspecified)	21 µM	23.1 µM		
O=C1CCC(CS(=O)(=O)c2ccc(Cl)cc2)C(=O)N1 (stereo unspecified)	6.81 µM	5.9 µM		

Source: ChEMBL document CHEMBL5352463, “Synthesis of novel glutarimide ligands for the E3 ligase substrate receptor Cereblon (CRBN): Investigation of their binding mode and antiproliferative effects against myeloma cell lines” (Eur J Med Chem, 2023)
